Measurements from PubChem BioAssay AID2060883 (Molecular Pharmacology Branch, DTP, NCI, 2025).

System: 843782-103-R-J1-PDC complex spheroid viability
Assay: Anticancer human tumor 843782-103-R-J1-PDC patient-derived lung adenocarcinoma cell line growth inhibition [RAS]
Settings: for IC50: curve of first compound; for viability, T/C: stronger effect = lower value
From the text: RAS pathway inhibitors in Combinations in Complex Spheroids
A high-throughput screen of multi-cell type tumor spheroids was designed to identify active combinations of RAS pathway inhibitors and targeted small molecules. Complex spheroids include a stromal component modeled by human endothelial cells (HUVEC) and fibroblasts modeled by human mesenchymal stem cells (MSCs). The concentration ranges selected for each drug and investigational agent were based upon clinically achievable concentrations if the clinical Cmax of the agent was known.
Compounds. The drugs and investigational agents: abemaciclib (NSC768073), cobimetinib (NSC768068), divarasib (GDC6063, NSC841802), docetaxel (NSC628503), GDC-1971 (RLY-1971, NSC841576), gemcitabine (NSC613327), inavolisib (NSC800729), ipatasertib (NSC767898), KB-0742 (NSC834161), MRTX-1133 (NSC836407), osimertinib (NSC779217), RMC-4630 (NSC839698), RMC-6236 (NSC851965), RMC-6291 (NSC852671), Ro-3306 (NSC812927), sapanisertib (NSC764658), SN-38 (NSC673596), staurosporine (NSC755774), SY5609 (NSC837396), and tovorafenib (DAY101, NSC766906), were obtained from the National Cancer Institute (NCI) Developmental Therapeutics Program Chemical Repository. The FDA-approved anticancer drug set is available from the NCI Developmental Therapeutics Program. […] The stock solutions were prepared in dimethyl sulfoxide (DMSO, Sigma-Aldrich, St. Louis, MO, cat. D2650) at 800-fold the tested concentration and stored at -70 degrees C prior to their use. All drugs and investigational agents were tested over a range starting from a high concentration at or near the clinical Cmax and decreasing in half-log increments. If the clinical Cmax for an agent had not been determined, the highest concentration tested was 10 microM.
Cell Culture. All cells were maintained in an incubator at 37 degrees C and 5% CO2 with 95% humidity. The PDC lines were cultured according to standard operating procedures established by the NCI PDMR. All PDCs were thawed and cultured in Matrigel-coated flasks prepared with a working solution of 1X Ham's F-12 nutrient mix, without supplementation (Invitrogen, Waltham, MA, cat. 11765054), 100 U/mL penicillin-streptomycin (Invitrogen, cat. 15140122), and 2.5% Matrigel (Corning Inc., Corning, NY, cat. 354248) for the first three passages. The 362531-283-R-J2-PDC and 782815-120-R-J1-PDC lines were cultured in 6C/Colon 1B media, which includes advanced DMEM/F-12 (Thermo Fisher Scientific, cat. 12634028), 10 mM HEPES (Thermo Fisher Scientific, cat. 15630080), 1X GlutaMAX supplement (Thermo Fisher Scientific, cat. 35050061), 0.1 mg/mL primocin (InvivoGen, San Diego, CA, cat. ant-pm-2), 10% defined fetal bovine serum, heat inactivated (HyClone Laboratories Inc., Logan, UT, cat. SH30070.03HI), 50% L-WRN conditioned media (ATCC, cat. CRL-3276), 1.25 mM N-Acetyl-L-cysteine (Sigma-Aldrich, cat. A9165), 10 mM nicotinamide (Sigma-Aldrich, cat. N0636), 1X B-27 supplement (Thermo Fisher Scientific, cat. 17504044), 1X N-2 supplement (Thermo Fisher Scientific, cat. 17502048), 50 ng/mL human EGF (Thermo Fisher Scientific, cat. PHG0311), and 10 microM Y-27632 dihydrochloride (Tocris Bioscience, cat. 1254). The K12877-001-R-J1-PDC line was cultured in 6I media, which includes all 6C/Colon 1B media plus 10 ng/mL human FGF-10 (PeproTech, cat. 100-26), 1 ng/mL human FGF-2 (PeproTech, cat. 100-18B), 1 µM prostaglandin E2 (Tocris Bioscience, cat. 2296), […] hydrocortisone (Sigma-Aldrich, cat. H4001), and […] bovine insulin (Sigma-Aldrich, cat. I6634). The K86415-001-R-J1-PDC line was cultured in 6D media, which includes all 6C/Colon 1B media components minus the L-WRN conditioned media. The 485176-168-R4-J1-PDC was cultured in PANC media, which includes all 6C/Colon 1B media plus 100 ng/mL human FGF-10 (PeproTech, cat. 100-26), 500 nM SB-431542 (Selleckchem, cat. S1067), and 10 nM gastrin (Tocris Bioscience, cat. 3006). […]

[1] = second compound 0.000949 µM, first compound 0.0316 µM
[2] = second compound 0.000949 µM, first compound 0.1 µM
[3] = second compound 0.000949 µM, first compound 0.316 µM
[4] = second compound 0.000949 µM, first compound 1 µM
[5] = second compound 0.003 µM, first compound 0.0316 µM
[6] = second compound 0.003 µM, first compound 0.1 µM
[7] = second compound 0.003 µM, first compound 0.316 µM
[8] = second compound 0.003 µM, first compound 1 µM
[9] = second compound 0.00949 µM, first compound 0.0316 µM
[10] = second compound 0.00949 µM, first compound 0.1 µM
[11] = second compound 0.00949 µM, first compound 0.316 µM
[12] = second compound 0.00949 µM, first compound 1 µM
[13] = second compound 0.03 µM, first compound 0.0316 µM
[14] = second compound 0.03 µM, first compound 0.1 µM
[15] = second compound 0.03 µM, first compound 0.316 µM
[16] = second compound 0.03 µM, first compound 1 µM
[17] = second compound 0.0949 µM, first compound 0.0316 µM
[18] = second compound 0.0949 µM, first compound 0.1 µM
[19] = second compound 0.0949 µM, first compound 0.316 µM
[20] = second compound 0.0949 µM, first compound 1 µM
[21] = second compound 0.3 µM, first compound 0.0316 µM
[22] = second compound 0.3 µM, first compound 0.1 µM
[23] = second compound 0.3 µM, first compound 0.316 µM
[24] = second compound 0.3 µM, first compound 1 µM
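Further: viability read after seven days of compound exposure.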

In the case of `O=C(c1ccc(F)c(F)c1Nc1ccc(I)cc1F)N1CC(O)([C@@H]2CCCCN2)C1` + CCn1c(-c2cc(N3CCN(C)CC3)cnc2C(C)OC)c2c3cc(ccc31)-c1csc(n1)CC(NC(=O)C1CC1C)C(=O)N1CCCC(N1)C(=O)OCC(C)(C)C2, the IC50 (second compound 0.000949 µM) is reported as 18 nM, the IC50 (second compound 0.003 µM) is reported as 4.01 nM and the IC50 (second compound 0.00949 µM) is reported as under 3.16 nM. It also gave an IC50 (second compound 0.03 µM) of under 3.16 nM, an IC50 (second compound 0.0949 µM) of under 3.16 nM and an IC50 (second compound 0.3 µM) of under 3.16 nM. The viability, T/C (second compound 0.000949 µM, first compound 0.00316 µM) was 68.7%, the viability, T/C (second compound 0.000949 µM, first compound 0.01 µM) was 63.4% and the viability, T/C [1] was 36.7%. For the same compound, the viability, T/C [2] was 26.3%, the viability, T/C [3] was 19% and the viability, T/C [4] was 11%. It also gave a viability, T/C (second compound 0.003 µM, first compound 0.00316 µM) of 53%, a viability, T/C (second compound 0.003 µM, first compound 0.01 µM) of 37.5% and a viability, T/C [5] of 31.5%. For the same compound, the viability, T/C [6] was 17.7%, the viability, T/C [7] was 11.7% and the viability, T/C [8] was 10.3%. The viability, T/C (second compound 0.00949 µM, first compound 0.00316 µM) was 30%, the viability, T/C (second compound 0.00949 µM, first compound 0.01 µM) was 19.3% and the viability, T/C [9] was 16.9%. For the same compound, the viability, T/C [10] was 10.9%, the viability, T/C [11] was 9.55% and the viability, T/C [12] was 7.11%. The viability, T/C (second compound 0.03 µM, first compound 0.00316 µM) was 14.8%, the viability, T/C (second compound 0.03 µM, first compound 0.01 µM) was 15.3% and the viability, T/C [13] was 10.1%. The viability, T/C [14] was 8.81%, the viability, T/C [15] was 8.18% and the viability, T/C [16] was 9.08%. It also gave a viability, T/C (second compound 0.0949 µM, first compound 0.00316 µM) of 13%, a viability, T/C (second compound 0.0949 µM, first compound 0.01 µM) of 10.8% and a viability, T/C [17] of 9.11%. It also gave a viability, T/C [18] of 7.24%, a viability, T/C [19] of 7.61% and a viability, T/C [20] of 8.33%. The viability, T/C (second compound 0.3 µM, first compound 0.00316 µM) was 10.4%, the viability, T/C (second compound 0.3 µM, first compound 0.01 µM) was 8.56% and the viability, T/C [21] was 7.38%. For the same compound, the viability, T/C [22] was 6.95%, the viability, T/C [23] was 8.88% and the viability, T/C [24] was 5.35%.
With `NC1c2ccccc2OC12CCN(c1cnc3c(N4CCCc5ncccc54)n[nH]c3n1)CC2` (centres undefined) + CCn1c(-c2cc(N3CCN(C)CC3)cnc2C(C)OC)c2c3cc(ccc31)-c1csc(n1)CC(NC(=O)C1CC1C)C(=O)N1CCCC(N1)C(=O)OCC(C)(C)C2 the IC50 (second compound 0.000949 µM) was under 31.6 nM, the IC50 (second compound 0.003 µM) was under 31.6 nM and the IC50 (second compound 0.00949 µM) was under 31.6 nM. For the same compound, the IC50 (second compound 0.03 µM) was under 31.6 nM, the IC50 (second compound 0.0949 µM) was under 31.6 nM and the IC50 (second compound 0.3 µM) was under 31.6 nM. It also gave a viability, T/C [1] of 39.3%, a viability, T/C [2] of 25.7% and a viability, T/C [3] of 20%. The viability, T/C [4] was 19.5%, the viability, T/C (second compound 0.000949 µM, first compound 3.16 µM) was 16.9% and the viability, T/C (second compound 0.000949 µM, first compound 10 µM) was 12.2%. The viability, T/C [5] was 27.1%, the viability, T/C [6] was 19.2% and the viability, T/C [7] was 17.9%. For the same compound, the viability, T/C [8] was 16.2%, the viability, T/C (second compound 0.003 µM, first compound 3.16 µM) was 13.6% and the viability, T/C (second compound 0.003 µM, first compound 10 µM) was 10.3%. The viability, T/C [9] was 24.2%, the viability, T/C [10] was 15.6% and the viability, T/C [11] was 17%. It also gave a viability, T/C [12] of 15%, a viability, T/C (second compound 0.00949 µM, first compound 3.16 µM) of 12.8% and a viability, T/C (second compound 0.00949 µM, first compound 10 µM) of 8.86%. For the same compound, the viability, T/C [13] was 16.8%, the viability, T/C [14] was 14.8% and the viability, T/C [15] was 12.6%. For the same compound, the viability, T/C [16] was 12.7%, the viability, T/C (second compound 0.03 µM, first compound 3.16 µM) was 14.2% and the viability, T/C (second compound 0.03 µM, first compound 10 µM) was 9.33%. It also gave a viability, T/C [17] of 18.1%, a viability, T/C [18] of 14% and a viability, T/C [19] of 15.2%. It also gave a viability, T/C [20] of 13.8%, a viability, T/C (second compound 0.0949 µM, first compound 3.16 µM) of 12.2% and a viability, T/C (second compound 0.0949 µM, first compound 10 µM) of 9.38%. It also gave a viability, T/C [21] of 13.6%, a viability, T/C [22] of 13.6% and a viability, T/C [23] of 13.6%. It also gave a viability, T/C [24] of 12.8%, a viability, T/C (second compound 0.3 µM, first compound 3.16 µM) of 11.7% and a viability, T/C (second compound 0.3 µM, first compound 10 µM) of 7.8%.
